According to patent US20100311714A1, “1H-IMIDAZO[4,5-c]QUINOLINONE COMPOUNDS” (priority 2009, published 2010):

Experiments:
Assay type in all cases: cell-based
[1] = test system: PKB Ser473 phosphorylation in Rat1-myr-HA-p110 beta cells; experiment: Reverse protein array, PKB Ser473 phosphorylation in Rat1-myr-HA-p110 beta cells; settings: Rattus norvegicus, 0.5 h, 30 minutes compound incubation, read-out: p-PKB/IC50_beta
Procedure: (§1) No. 15140-114) and 10 μg/ml Puromycine (Sigma, cat. No. P9620).
(§2) The Rat1-myr-HA-p110 alpha, beta and delta cells were trypsinized and counted with a CASY TT cell counter (Schärfe System GmbH, Reutlingen Germany). The cells were diluted in fresh DMEM complete medium and 3×10^4 cells/150 μl/well seeded in 96-well TPP-tissue culture plates (TPP, cat. No. 92096). The plates were incubated at 37° C. and 5% CO2 under humidified condition for at least 20 h. Compound of formula I working solutions were prepared freshly as serial 8 step dilutions (vol/vol) in DMSO on the day of the experiment. The working solutions were further diluted 1/500 in cell culture medium to get final compound concentrations of 10, 3.333, 1.111, 0.370, 0.123, 0.041, 0.014, 0.005 μM. The final DMSO concentration was kept constant at 0.2%. cell culture medium containing 0.2% DMSO was used as vehicle treatment control. Post incubation, the cells were treated with the serial compound dilution. 50 μl of the compound medium mixture was added to the wells containing cells and 150 μl DMEM medium and incubated for 30 minutes (37° C., 5% CO2). After 30 minutes of incubation, the medium mixture was quickly removed by aspiration. For cell lysis, a mixture of 10% CLB1 CeLyA lysis buffer (Zeptosens, cat. No. 9000), 90% CSBL1 CeLyA spotting buffer (Zeptosens, cat. No. 9020) was freshly prepared and supplemented with 1% Octyl β-D-glucopyranoside (SIGMA, cat. No. 08001-5G) and 1 mM Na-Orthovanadate (Sigma, cat No. S-6508). 50 μl of the described lysis buffer mix was added to each well, followed by 10 minutes of incubation on ice. After an additional freeze-thaw cycle, another 50 μl of the lysis buffer mix without Octyl β-D-glucopyranoside was added to the wells, and 90 μl of the cell lysate was transferred to a 96-well V-bottom plate (Fisher Scientific, cat. No. 6067Y), followed by a centrifugation step (5 min, 1500 rpm at 19° C. in an Eppendorf 5810R centrifuge) to remove the unlysed cell debris.
(§3) The samples were spotted onto ZeptoMARK® PWG protein microarray chips (Zeptosens, Witterswil, Switzerland) with the piezoelectric microdispense-based, non-contact Nano-Plotter 2.1 (GeSiM, Grosserkmannsdorf, Germany). Each sample was spotted at 4 different sample concentrations (d1=100%, d2=75%, d3=50%, d4=25%) by diluting the cell lysate with the corresponding volume of lysis buffer mix. After spotting the ZeptoMARK® protein microarrays, the chips are incubated for 1 hour at 37° C. To receive a uniform blocking result, the CeLyA blocking buffer BB1 (Zeptosens, cat. No. 9040) is administered via an ultrasonic nebulizer. After 20 minutes of blocking the chips are extensively rinsed with deionized water (Milli-Q quality, 18MΩ×cm) and dried in a nitrogen air flow.
(§4) After the sample spotting and blocking procedure, the ZeptoMARK® chips were transferred to the ZeptoCARRIER (Zeptosens, cat. No. 1100), whose six flow cells individually address the six arrays on a chip, and washed twice with 200 μl CAB1 CeLyA assay buffer (Zeptosens, cat. No. 9032). The assay buffer was then aspirated and each compartment incubated with 100 μl of the primary target antibody (pAkt Ser473; CST#9271) at RT over night. Post incubation, the primary antibody was removed, the arrays washed twice with CAB1 buffer and further incubated with 100 μl of Alexa fluor 647-labeled anti rabbit IgG Fab fragments (Invitrogen; #Z25305) for one hour at RT in the dark. After incubation, the arrays were washed twice with 200 μl CAB1 buffer. The fluorescence of the target-bound Fab fragments is read out on the ZeptoReader (Zeptosens, Witterswil, Switzerland) using a laser (excitation wavelength 635 nm) and a CCD camera. The fluorescence signal was assessed with exposure times of 1, 3, 5 and 10 seconds, depending on the intensity of the signal. The resulting four images taken per array are stored as 16-bit TIF files. […]

[2] = test system: PKB Ser473 phosphorylation in Rat1-myr-HA-p110 alpha cells; experiment: Reverse protein array, PKB Ser473 phosphorylation in Rat1-myr-HA-p110 alpha cells; settings: Rattus norvegicus, 0.5 h, 30 minutes compound incubation, read-out: p-PKB/IC50_alpha
Procedure: as §1, §2, §3, §4

[3] = test system: PKB Ser473 phosphorylation in Rat1-myr-HA-p110 delta cells; experiment: Reverse protein array, PKB Ser473 phosphorylation in Rat1-myr-HA-p110 delta cells; settings: Rattus norvegicus, 0.5 h, 30 minutes compound incubation, read-out: p-PKB/IC50_delta
Procedure: as §1, §2, §3, §4

Structure (SMILES)	IC50 [1] [nM]	IC50 [2] [nM]	IC50 [3] [nM]
COc1ccc(-n2c(=O)n(C)c3cnc4ccc(-c5cnc(N(C)C)nc5)cc4c32)c(C)n1 [Example 11.4, 8-(2-Dimethylamino-pyrimidin-5-yl)-1-(6-methoxy-2-methyl-pyridin-3-yl)-3-methyl-1,3-dihydro-imidazo[4,5-c]quinolin-2-one]	127	86.6	136
CNc1ncc(-c2ccc3ncc4c(c3c2)n(-c2ccc(OC)nc2C)c(=O)n4C)cn1 [Example 11.3, 1-(6-Methoxy-2-methyl-pyridin-3-yl)-3-methyl-8-(2-methylamino-pyrimidin-5-yl)-1,3-dihydro-imidazo[4,5-c]quinolin-2-one]	18.1	8.83	23.2
CNc1ccc(-c2ccc3ncc4c(c3c2)n(-c2ccc(OC)nc2C)c(=O)n4C)cn1 [Example 11.2, 1-(6-Methoxy-2-methyl-pyridin-3-yl)-3-methyl-8-(6-methylamino-pyridin-3-yl)-1,3-dihydro-imidazo[4,5-c]quinolin-2-one]	15.2	6.97	31.4

The remaining lines, values ahead:

IC50 [1] [nM]	IC50 [2] [nM]	IC50 [3] [nM]	Structure (SMILES)
13	6.11	15.5	COc1ccc(-n2c(=O)n(C)c3cnc4ccc(-c5cnc(N)c(C(F)(F)F)c5)cc4c32)c(C)n1 [Example 11.6, 8-(6-Amino-5-trifluoromethyl-pyridin-3-yl)-1-(6-methoxy-2-methyl-pyridin-3-yl)-3-methyl-1,3-dihydro-imidazo[4,5-c]quinolin-2-one]
40.8	16.9	66.9	COc1ccc(-c2ccc3ncc4c(c3c2)n(-c2ccc(OC)nc2C)c(=O)n4C)cn1 [Example 11.5, 1-(6-Methoxy-2-methyl-pyridin-3-yl)-8-(6-methoxy-pyridin-3-yl)-3-methyl-1,3-dihydro-imidazo[4,5-c]quinolin-2-one]
